Results taken from the supplement of paper PMC10307832.

Experiments:
Test in all cases: relative viability (nuclei count vs DMSO), 5 days (fraction); higher = more cells survive
HOP-62 = system: HOP-62
Procedure, shortened: (§1)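 Relative viability was taken as the ratio of nuclei in treated wells to nuclei in vehicle wells. Lung cancer cell lines in 1536-well plates received compounds by pin tool one day after seeding, either one drug alone or a fixed anchor-drug dose plus five library-drug doses (not always all listed) in √10 steps. Nuclei were counted on 4× images after 5 days of treatment, and values are medians of duplicate plates.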

ABC-1 = system: ABC-1
Procedure, shortened: as §1

COR-L 105 = system: COR-L 105
Procedure, shortened: as §1

NCI-H2126 = system: NCI-H2126
Procedure, shortened: as §1

CAL-12T = system: CAL-12T
Procedure, shortened: as §1

NCI-H2085 = system: NCI-H2085
Procedure, shortened: as §1

NCI-H1755 = system: NCI-H1755
Procedure, shortened: as §1

UMC-11 = system: UMC-11
Procedure, shortened: as §1

NCI-H1915 = system: NCI-H1915
Procedure, shortened: as §1

HCC-15 = system: HCC-15
Procedure, shortened: as §1

ChaGo-K-1 = system: ChaGo-K-1
Procedure, shortened: as §1

NCI-H3122 = system: NCI-H3122
Procedure, shortened: as §1

NCI-H322M = system: NCI-H322M
Procedure, shortened: as §1

NCI-H1975 = system: NCI-H1975
Procedure, shortened: as §1

HCC-78 = system: HCC-78
Procedure, shortened: as §1

NCI-H358 = system: NCI-H358
Procedure, shortened: as §1

NCI-H441 = system: NCI-H441
Procedure, shortened: as §1

NCI-H2023 = system: NCI-H2023
Procedure, shortened: as §1

NCI-H1666 = system: NCI-H1666
Procedure, shortened: as §1

LXF-289 = system: LXF-289
Procedure, shortened: as §1

EMC-BAC-2 = system: EMC-BAC-2
Procedure, shortened: as §1

EPLC-272H = system: EPLC-272H
Procedure, shortened: as §1

Structure (SMILES): O=c1cc(N2CCOCC2)oc2c(-c3cccc4c3sc3ccccc34)cccc12 + COc1cc2c(Oc3ccc(NC(=O)C4(C(=O)Nc5ccc(F)cc5)CC4)cc3F)ccnc2cc1OCCCN1CCOCC1 [Foretinib] (partner 0.25 µM)
- relative viability (HOP-62; first compound 0.01 µM): 1.1
- relative viability (HOP-62; first compound 0.03162 µM): 1.17
- relative viability (HOP-62; first compound 0.1 µM): 1.11
- relative viability (HOP-62; first compound 0.3162 µM): 1.14
- relative viability (HOP-62; first compound 1 µM): 1.16
- relative viability (ABC-1; first compound 0.01 µM): 1.03
- relative viability (ABC-1; first compound 0.03162 µM): 0.943
- relative viability (ABC-1; first compound 0.1 µM): 1.48
- relative viability (ABC-1; first compound 0.3162 µM): 1.11
- relative viability (ABC-1; first compound 1 µM): 1.02
- relative viability (COR-L 105; first compound 0.01 µM): 0.986
- relative viability (COR-L 105; first compound 0.03162 µM): 1.1
- relative viability (COR-L 105; first compound 0.1 µM): 0.681
- relative viability (COR-L 105; first compound 0.3162 µM): 1.04
- relative viability (COR-L 105; first compound 1 µM): 1.21
- relative viability (NCI-H2126; first compound 0.01 µM): 1.16
- relative viability (NCI-H2126; first compound 0.03162 µM): 1.22
- relative viability (NCI-H2126; first compound 0.1 µM): 1.29
- relative viability (NCI-H2126; first compound 0.3162 µM): 1.2
- relative viability (NCI-H2126; first compound 1 µM): 1.24
- relative viability (CAL-12T; first compound 0.01 µM): 1.12
- relative viability (CAL-12T; first compound 0.03162 µM): 0.973
- relative viability (CAL-12T; first compound 0.1 µM): 1.14
- relative viability (CAL-12T; first compound 0.3162 µM): 1.03
- relative viability (CAL-12T; first compound 1 µM): 1.11
- relative viability (NCI-H2085; first compound 0.01 µM): 0.96
- relative viability (NCI-H2085; first compound 0.03162 µM): 0.941
- relative viability (NCI-H2085; first compound 0.1 µM): 0.961
- relative viability (NCI-H2085; first compound 0.3162 µM): 0.912
- relative viability (NCI-H2085; first compound 1 µM): 0.944
- relative viability (NCI-H1755; first compound 0.01 µM): 0.899
- relative viability (NCI-H1755; first compound 0.03162 µM): 0.952
- relative viability (NCI-H1755; first compound 0.1 µM): 0.959
- relative viability (NCI-H1755; first compound 0.3162 µM): 0.926
- relative viability (NCI-H1755; first compound 1 µM): 0.934
- relative viability (UMC-11; first compound 0.01 µM): 1
- relative viability (UMC-11; first compound 0.03162 µM): 1.08
- relative viability (UMC-11; first compound 0.1 µM): 1.03
- relative viability (UMC-11; first compound 0.3162 µM): 1.01
- relative viability (UMC-11; first compound 1 µM): 0.91
- relative viability (NCI-H1915; first compound 0.01 µM): 1.12
- relative viability (NCI-H1915; first compound 0.03162 µM): 1.1
- relative viability (NCI-H1915; first compound 0.1 µM): 1.16
- relative viability (NCI-H1915; first compound 0.3162 µM): 1.11
- relative viability (NCI-H1915; first compound 1 µM): 1.06
- relative viability (HCC-15; first compound 0.01 µM): 1.01
- relative viability (HCC-15; first compound 0.03162 µM): 1.09
- relative viability (HCC-15; first compound 0.1 µM): 1.09
- relative viability (HCC-15; first compound 0.3162 µM): 0.989
- relative viability (HCC-15; first compound 1 µM): 0.971
- relative viability (ChaGo-K-1; first compound 0.01 µM): 0.901
- relative viability (ChaGo-K-1; first compound 0.03162 µM): 1.01
- relative viability (ChaGo-K-1; first compound 0.1 µM): 0.948
- relative viability (ChaGo-K-1; first compound 0.3162 µM): 0.869
- relative viability (ChaGo-K-1; first compound 1 µM): 0.96
- relative viability (NCI-H3122; first compound 0.01 µM): 0.953
- relative viability (NCI-H3122; first compound 0.03162 µM): 0.918
- relative viability (NCI-H3122; first compound 0.1 µM): 1
- relative viability (NCI-H3122; first compound 0.3162 µM): 0.932
- relative viability (NCI-H3122; first compound 1 µM): 0.954
- relative viability (NCI-H322M; first compound 0.01 µM): 0.91
- relative viability (NCI-H322M; first compound 0.03162 µM): 0.903
- relative viability (NCI-H322M; first compound 0.1 µM): 0.888
- relative viability (NCI-H322M; first compound 0.3162 µM): 0.917
- relative viability (NCI-H322M; first compound 1 µM): 0.849
- relative viability (NCI-H1975; first compound 0.01 µM): 0.842
- relative viability (NCI-H1975; first compound 0.03162 µM): 1.1
- relative viability (NCI-H1975; first compound 0.1 µM): 1.1
- relative viability (NCI-H1975; first compound 0.3162 µM): 0.927
- relative viability (NCI-H1975; first compound 1 µM): 0.936
- relative viability (HCC-78; first compound 0.01 µM): 0.492
- relative viability (HCC-78; first compound 0.03162 µM): 0.457
- relative viability (HCC-78; first compound 0.1 µM): 0.544
- relative viability (HCC-78; first compound 0.3162 µM): 0.581
- relative viability (HCC-78; first compound 1 µM): 0.533
- relative viability (NCI-H358; first compound 0.01 µM): 0.647
- relative viability (NCI-H358; first compound 0.03162 µM): 0.7
- relative viability (NCI-H358; first compound 0.1 µM): 0.667
- relative viability (NCI-H358; first compound 0.3162 µM): 0.741
- relative viability (NCI-H358; first compound 1 µM): 0.774
- relative viability (NCI-H441; first compound 0.01 µM): 1.17
- relative viability (NCI-H441; first compound 0.03162 µM): 0.864
- relative viability (NCI-H441; first compound 0.1 µM): 1.02
- relative viability (NCI-H441; first compound 0.3162 µM): 0.992
- relative viability (NCI-H441; first compound 1 µM): 0.969
- relative viability (NCI-H2023; first compound 0.01 µM): 0.719
- relative viability (NCI-H2023; first compound 0.03162 µM): 0.803
- relative viability (NCI-H2023; first compound 0.1 µM): 0.763
- relative viability (NCI-H2023; first compound 0.3162 µM): 0.873
- relative viability (NCI-H2023; first compound 1 µM): 0.636
- relative viability (NCI-H1666; first compound 0.01 µM): 0.907
- relative viability (NCI-H1666; first compound 0.03162 µM): 0.917
- relative viability (NCI-H1666; first compound 0.1 µM): 0.983
- relative viability (NCI-H1666; first compound 0.3162 µM): 0.883
- relative viability (NCI-H1666; first compound 1 µM): 0.913
- relative viability (LXF-289; first compound 0.01 µM): 0.969
- relative viability (LXF-289; first compound 0.03162 µM): 0.984
- relative viability (LXF-289; first compound 0.1 µM): 1
- relative viability (LXF-289; first compound 0.3162 µM): 0.97
- relative viability (LXF-289; first compound 1 µM): 0.965
- relative viability (EMC-BAC-2; first compound 0.01 µM): 1.01
- relative viability (EMC-BAC-2; first compound 0.03162 µM): 0.995
- relative viability (EMC-BAC-2; first compound 0.1 µM): 0.99
- relative viability (EMC-BAC-2; first compound 0.3162 µM): 0.983
- relative viability (EMC-BAC-2; first compound 1 µM): 0.978
- relative viability (EPLC-272H; first compound 0.01 µM): 0.607
- relative viability (EPLC-272H; first compound 0.03162 µM): 0.667
- relative viability (EPLC-272H; first compound 0.3162 µM): 0.734
- relative viability (EPLC-272H; first compound 1 µM): 0.688
